Results from patent US4526776A, “Cationic cyanato and thiocyanato complexes useful as radiodiagnostic agents” (E. I. du Pont de Nemours & Company, priority 1983, dated 1985).

Assays:
[1] = test system: hepatobiliary transit (liver, gall bladder and gastro-intestinal tract); test: Visualization of hepatobiliary transit, sequential scintillation camera images after intravenous injection; type: in vivo, rabbit (male New Zealand Albino); settings: rabbit, >1 mCi (Disofenin: at least 1 mCi)
Description: A lyophylized vial of HEPATOLITE™ (New England Nuclear Corporation's brand of Technetium Tc99m Disofenin) is labelled with ^99m Tc-pertechnetate in accordance with manufacturer's directions. At least 1 mCi of the labelled preparation is injected intravenously into a 2.5 Kg male New Zealand Albino rabbit. The rabbit is positioned under a Searle Pho-Gamma scintallation camera in such a way that the liver and gastro-intestinal tract are within the field of view.
Greater than 1 mCi of the ^99m Tc-Thiocyanato-DMPE complex from either Example 1 or 2 is injected into a rabbit as in Example 3.

hepatobiliary transit = settings: commercially available agent, species not stated; cited from earlier work

Row | Compound | sequential images of hepatobiliary transit, passage and image quality [1] | time to sequential images of hepatobiliary transit (liver, gall bladder and gastro-intestinal tract) [1] | time to obtain an image of the hepatobiliary transit (hepatobiliary transit) [min]
1 | CC(C)c1cccc(C(C)C)c1NC(=O)CN(CC(=O)O)CC(=O)O.[99Tc] [Disofenin, Technetium Tc99m Disofenin, reference compound] | initial liver uptake with gradual visualization of the gall bladder and gastro-intestinal tract, analogous to the diagnostically efficacious results obtained in clinical studies of normal healthy humans | about 30 minutes | ≤ 30
2 | ^99m Tc-Thiocyanato - DMPE Complex [Example 2] | rapid passage and comparable image quality of the liver, gall bladder and gastro-intestinal tract | about 10 minutes | –
